The values below come from patent US9326520B2, “Pest repellent comprising geranylacetone” (The University Court of the University of Aberdeen, priority 2006, dated 2016).

Test [1] has as its system Aedes aegypti host-seeking female mosquitoes. The test can be described thus: Y-tube olfactometer: response of mosquitoes to hand of attractive volunteer with and without chemical. The class given is in vivo. The source says:
FIG. 5. […] (−1=1×10^−1 g μL^−1; −2=1×10^−2 g μL^−1, etc). Back transformed means+95% confidence intervals (calculated for a binomial distribution) from the logistic scale are shown.
A convenient bioassay was established following work by Geier et al. (1999)^17 using a Y-tube olfactometer in which mosquitoes, Ae. aegypti, could “choose” between volatile skin emanations and air alone, the “choice” being expressed as flight activity or relative attraction. Initially, the source of skin emanations was from individual hands of a series of human volunteers.
These compounds (from Sigma Aldrich) were tested individually at different concentrations in the olfactometer against Ae. aegypti. The upwind flight activity, relative attraction and probing activity (feeding) of the mosquitoes to the hand of an attractive volunteer with and without the chemicals was recorded.

A further test concerns C. impunctatus midges. Kind of test: Field trial of repellency (WHO protocol), compounds on stockings worn on forearms of volunteers. The class given is in vivo, Culicoides impunctatus. The following applies: for repellency compared with DEET at 1%: over 1 min, single compounds at 1%. The protocol:
FIG. 6. Repellency of EAG-active human-derived compounds applied to the forearms of volunteers and tested on Culicoides impuctatus midges in the field. a) over 1 minute and b) over 5 minutes.
A field trial was made in the Ormsary estate, Argyllshire, during the summer 2005 in a region with an extremely high natural population of C. impunctatus. […] Compounds were applied to (nylon) stockings and worn on the forearms of volunteers and were tested at three concentrations in ethanol (1%, 0.01% and 0.0001%). All compounds and mixtures were compared against the WHO approved repellent diethyltoluamide (DEET) (1% and 40%).

The next test has as its system Culex quinquefasciatus. Kind of test: Laboratory-based repellency test, treated forearm in cage, protective efficacy (PE). It counts as in vivo. Particulars: for Mean % P.E ± S.E: landings over 3 min. The protocol: (§1) The mosquitoes were laboratory-reared using standard conditions at ICIPE, Duduville. 5-7 day old female mosquitoes that had been starved for 18 h but previously fed on 6% glucose solution were used. Eighteen cages (50×50×50 cm) were used with 25 female mosquitoes in each. Six human volunteers with no or little allergic reaction to bites were selected. Test solutions (0.5 ml in acetone) were applied to a volunteer's forearms and the hand was covered with a glove. Acetone alone (0.5 ml) served as a control on the other arm. The control arm was inserted into a cage and the number of landings were recorded over 3 min. The treated arm was then inserted as above. Repellency data was expressed as protective efficacy (PE) and was calculated by using the formula PE=(% control mean−% test mean/% control mean). The data were transformed and subjected to an ANOVA.
(§2) Each compound was tested at concentrations ranging from 0.0001% to 10%. […]

Another test concerns Anopheles gambiae. The description is as above. It counts as in vivo. Particulars: An. gambiae, landings over 3 min. The protocol:
as §1, §2

The next test deals with Ae. aegypti. The following applies: H. D. Douglas et al. J. Med. Entomol. 42(4): 647-651 (2005); cited from earlier work.
Where [2] appears, read: hand of attractive volunteer with chemical vs without, data not shown.

Several values for one entry are separate records, joined by “and”; a condition that tells them apart may be missing. Equal values may be shown once. Entries after “also recorded” stand apart in the source; their conditions may differ.

Turning to `CC(=O)CCC=C(C)CCC=C(C)C` [geranylacetone, 6,10-dimethyl-5,9-undecadien-2-one], in test [1] (setting [2]), the “probing activity (feeding)” value was “significantly reduced”. The relative attraction result in test [1] (setting [2]) is “caused a reduction in relative attraction”. Further, the repellency entry with C. impunctatus midges (all concentrations tested (1%, 0.01% and 0.0001% in ethanol)) is “effective at all concentrations tested”. In the test with C. impunctatus midges (full 5 min testing period, single compound at 1%), the “% repellency compared with DEET” value is listed as “higher % repellency than DEET; these differences were not significant”. In addition, the “repellency compared with DEET at 1%” value in the test on C. impunctatus midges is listed as “significantly greater than DEET at 1%”. The “Mean % P.E ± S.E” value in the test with Culex quinquefasciatus (0.0001 % Conc. in acetone) is 4.8%; with Culex quinquefasciatus (0.001 % Conc. in acetone), 10%; with Culex quinquefasciatus (0.01 % Conc. in acetone) it was 23.7%; in the test with Culex quinquefasciatus (0.1 % Conc. in acetone), 33.2 ± 4.5%; in the test with Culex quinquefasciatus (1 % Conc. in acetone), 84.1 ± 4.2%; in the test with Culex quinquefasciatus (10 % Conc. in acetone), 100 ± 0%. Also, the “Mean % P.E ± S.E” value with Culex quinquefasciatus (10 % Conc. in acetone, listed as Geranylacetone) is listed as 100%; in the test on Anopheles gambiae (0.001 % Conc. in acetone), 7.25 ± 9.5%; in the test on Anopheles gambiae (0.01 % Conc. in acetone) it was 11.17 ± 12.9%; with Anopheles gambiae (0.1 % Conc. in acetone), 30.13 ± 11%; in the test with Anopheles gambiae (1 % Conc. in acetone), 76.97 ± 5.9%; in the test with Anopheles gambiae (10 % Conc. in acetone) it was 100%. Moreover, in the test on Anopheles gambiae (10 % Conc. in acetone, listed as geranylacetonedecanal), the “Mean % P.E ± S.E” value came out at 100 ± 0%.

Take `CC(=O)CCC=C(C)C` [6-methyl-5-hepten-2-one, 6-Methyl-5-hepten-2-one]: the repellency result in the test with C. impunctatus midges (1 min time, 0.001%) was “significantly repellent”; in the test on C. impunctatus midges (1 min time, 0.01%), “not repellent”; in the test on C. impunctatus midges (1 min time, 1%), “strongly repellent”; in the test on C. impunctatus midges (over 5 min) it was “repellent only at 1%”. In addition, the “repellency compared with DEET at 1%” value with C. impunctatus midges is given as “more effective than DEET; also recorded: significantly greater than DEET at 1%”. For the same molecule, the “Mean % P.E ± S.E” value amounted to 8.0% with Culex quinquefasciatus (0.0001 % Conc. in acetone); 12.7% with Culex quinquefasciatus (0.001 % Conc. in acetone); 21.8% in the test on Culex quinquefasciatus (0.01 % Conc. in acetone); 30.1% in the test with Culex quinquefasciatus (0.1 % Conc. in acetone); 49.7 ± 2.9% with Culex quinquefasciatus (1 % Conc. in acetone); 100.0 ± 0% with Culex quinquefasciatus (10 % Conc. in acetone). Besides, the “Mean % P.E ± S.E” value in the test with Anopheles gambiae (0.0001 % Conc. in acetone) is recorded as 0.85 ± 3.9%; in the test on Anopheles gambiae (0.001 % Conc. in acetone) it was 1.57 ± 11.2%; in the test with Anopheles gambiae (0.01 % Conc. in acetone), 19.2 ± 5.5%; in the test on Anopheles gambiae (0.1 % Conc. in acetone), 34.07 ± 6.6%; in the test on Anopheles gambiae (1 % Conc. in acetone) it was 35.73 ± 8.7%; in the test on Anopheles gambiae (10 % Conc. in acetone), 74.75 ± 6.1%.

As for `CCCCCCCC=O` [octanal], the “repellent for Ae. aegypti (described previously)” value with Ae. aegypti is given as “described previously as a repellent”.

As for `CCN(CC)C(=O)c1cccc(C)c1` [DEET, diethyltoluamide, reference compound], the “Mean % P.E ± S.E” value is 7.6 ± 1.8% with Culex quinquefasciatus (0.001 % Conc. in acetone); 12.0 ± 1.7% in the test with Culex quinquefasciatus (0.01 % Conc. in acetone); 76.9 ± 5.4% in the test on Culex quinquefasciatus (0.1 % Conc. in acetone); 98.2 ± 1.1% in the test with Culex quinquefasciatus (1 % Conc. in acetone); 100% and 100 ± 0% in the test with Culex quinquefasciatus (10 % Conc. in acetone); 6.23 ± 1.7% in the test with Anopheles gambiae (0.001 % Conc. in acetone). Also, the “Mean % P.E ± S.E” value in the test with Anopheles gambiae (0.01 % Conc. in acetone) was 20% and 20.65 ± 6.4%; in the test on Anopheles gambiae (0.1 % Conc. in acetone), 83% and 83.78 ± 3.9%; in the test on Anopheles gambiae (1 % Conc. in acetone), 100% and 100 ± 0%; in the test on Anopheles gambiae (10 % Conc. in acetone), 100% and 100 ± 0%.

For `CCCCCCCCC=O` [nonanal], the “flight activity compared with the untreated hand” value in test [1] (at only one dose) is recorded as “significantly greater flight activity than the untreated hand”.

Take `CCCCCCCCCC=O` [decanal]: in the test on Culex quinquefasciatus, the “ranking of treatments (repellency)” value is recorded as “most effective treatment”.
